These results are taken from US20070197559A1, “Aryl substituted purine analogues” (priority 2004, published 2007).

pIC50, pKi: −log10 of the molar value. Some results are limits rather than exact numbers.

Assay [1] has as its target T1, human capsaicin receptor (Homo sapiens, UniProt Q8NER1).
T1 construct: transfected with the pBK-CMV expression construct encoding the full length human capsaicin receptor; expressed in transfected cells
Description: Calcium mobilization assay, determination of antagonist activity. It is filed as cell-based. The following applies: cells expressing human capsaicin receptor, capsaicin-induced fluorescence response, Example 6. How it is done:
A cDNA encoding full length human capsaicin receptor (SEQ ID NO:1, 2 or 3 of U.S. Pat. No. 6,482,611) is subcloned in the plasmid pBK-CMV (Stratagene, La Jolla, Calif.) for recombinant expression in mammalian cells.
Human embryonic kidney (HEK293) cells are transfected with the pBK-CMV expression construct encoding the full length human capsaicin receptor using standard methods. The transfected cells are selected for two weeks in media containing G418 (400 μg/ml) to obtain a pool of stably transfected cells. Independent clones are isolated from this pool by limiting dilution to obtain clonal stable cell lines for use in subsequent experiments.
Cells transfected with expression plasmids (as described in Example 4) and thereby expressing human capsaicin receptor are seeded and grown to 70-90% confluency in FALCON black-walled, clear-bottomed 96-well plates (#3904, BECTON-DICKINSON, Franklin Lakes, N.J.). The culture medium is emptied from the 96 well plates and FLUO-3 AM calcium sensitive dye (Molecular Probes, Eugene, Oreg.) is added to each well (dye solution: 1 mg FLUO-3 AM, 440 μL DMSO and […] pluronic acid in DMSO, diluted 1:250 in Krebs-Ringer HEPES (KRH) buffer (25 mM HEPES, 5 mM KCl, 0.96 mM NaH2PO4, 1 mM MgSO4, 2 mM CaCl2, 5 mM glucose, 1 mM probenecid, pH 7.4), 50 μl diluted solution per well). Plates are covered with aluminum foil and incubated at 37° C. for 1-2 hours in an environment containing 5% CO2. After the incubation, the dye is emptied from the plates, and the cells are washed once with KRH buffer, and resuspended in KRH buffer.
To measure the ability of a test compound to agonize or antagonize a calcium mobilization response in cells expressing capsaicin receptors to capsaicin or other vanilloid agonist, the EC50 of the agonist capsaicin is first determined. An additional 20 μl of KRH buffer and 1 μl DMSO is added to each well of cells, prepared as described above. 100 μl capsaicin in KRH buffer is automatically transferred by the FLIPR instrument to each well. Capsaicin-induced calcium mobilization is monitored using either FLUOROSKAN ASCENT (Labsystems; Franklin, Mass.) or FLIPR (fluorometric imaging plate reader system; Molecular Devices, Sunnyvale, Calif.) instruments. Data obtained between 30 and 60 seconds after agonist application are used to generate an 8-point concentration response curve, with final capsaicin concentrations of 1 nM to 3 μM. KALEIDAGRAPH software (Synergy Software, Reading, Pa.) is used to fit the data to the equation: y=a*(1/(1+(b/x)^c)) to determine the 50% excitatory concentration (EC50) for the response. In this equation, y is the maximum fluorescence signal, x is the concentration of the agonist or antagonist (in this case, capsaicin), a is the Emax, b corresponds to the EC50 value and c is the Hill coefficient. Determination of Agonist Activity
Test compounds are dissolved in DMSO, diluted in 20 μl KRH buffer so that the final concentration of test compounds in the assay well is between 1 μM and 5 μM, and added to cells prepared as described above. The 96 well plates containing prepared cells and test compounds are incubated in the dark, at room temperature for 0.5 to 6 hours. It is important that the incubation not continue beyond 6 hours. Just prior to determining the fluorescence response, 100 μl capsaicin in KRH buffer at twice the EC50 concentration determined as described above is automatically added by the FLIPR instrument to each well of the 96 well plate for a final sample volume of 200 μl and a final capsaicin concentration equal to the EC50. The final concentration of test compounds in the assay wells is between 1 μM and 5 μM. […] The concentration of antagonist required to provide a 50% decrease, relative to the response observed in the presence of capsaicin and without antagonist, is the IC50 for the antagonist, and is preferably below 1 micromolar, 100 nanomolar, 10 nanomolar or 1 nanomolar.
(In general: Calcium assays in cells follow changes in intracellular calcium, usually with a dye or a luminescent sensor.)

Assay [2] concerns the target vanilloid receptor (VR) (Homo sapiens, UniProt Q8NER1). The following applies: typical value, background; read-out: Ki value (binding to VR); cited from earlier work.

T1 sequence (Q8NER1 whole entry): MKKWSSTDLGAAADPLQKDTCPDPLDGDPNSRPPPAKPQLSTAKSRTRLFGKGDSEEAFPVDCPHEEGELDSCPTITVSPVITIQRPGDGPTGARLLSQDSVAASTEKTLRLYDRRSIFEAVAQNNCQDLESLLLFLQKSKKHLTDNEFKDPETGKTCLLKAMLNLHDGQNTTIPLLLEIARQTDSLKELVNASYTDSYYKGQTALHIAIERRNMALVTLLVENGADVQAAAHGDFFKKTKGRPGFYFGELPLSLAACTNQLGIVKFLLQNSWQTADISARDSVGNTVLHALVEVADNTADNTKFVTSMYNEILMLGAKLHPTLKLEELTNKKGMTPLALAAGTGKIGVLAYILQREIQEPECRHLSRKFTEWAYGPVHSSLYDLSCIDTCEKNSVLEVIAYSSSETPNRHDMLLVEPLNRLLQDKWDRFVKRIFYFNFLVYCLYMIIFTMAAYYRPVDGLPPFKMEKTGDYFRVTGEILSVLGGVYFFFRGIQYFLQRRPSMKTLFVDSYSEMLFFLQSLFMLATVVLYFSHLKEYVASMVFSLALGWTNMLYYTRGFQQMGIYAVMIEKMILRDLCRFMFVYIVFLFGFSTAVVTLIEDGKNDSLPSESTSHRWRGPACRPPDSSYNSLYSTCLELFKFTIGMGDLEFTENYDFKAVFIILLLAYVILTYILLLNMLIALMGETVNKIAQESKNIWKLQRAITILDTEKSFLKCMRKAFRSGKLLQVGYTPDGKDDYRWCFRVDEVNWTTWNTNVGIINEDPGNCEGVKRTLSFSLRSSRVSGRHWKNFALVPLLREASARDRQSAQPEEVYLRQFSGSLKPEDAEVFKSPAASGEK
Sequence of vanilloid receptor (VR) (Q8NER1 whole entry): as above

In the case of `C[C@@H]1CN(Cc2nc(Nc3ccc(C(C)(C)C)cc3)c3cnn(-c4ccccc4Cl)c3n2)C[C@H](C)O1` [(4-tert-Butyl-phenyl)-[1-(2-chloro-phenyl)-6-(2,6-dimethyl-morpholin-4-ylmethyl)-1H-pyrazolo[3,4-d]pyrimidin-4-yl]-amine], in assay [1], the pIC50 is at least 6.00.

Regarding `CC(C)(C)c1ccc(Nc2ncnc3c2cnn3-c2ncccc2Cl)cc1` [(4-tert-Butyl-phenyl)-[1-(3-chloro-pyridin-2-yl)-1H-pyrazolo[3,4-d]pyrimidin-4-yl]-amine], the pIC50 in assay [1] was at least 6.00.

For `FC(F)(F)c1ccc(Nc2ncnc3c2ncn3Cc2ccccc2Cl)cc1` [[9-(2-Chloro-benzyl)-9H-purin-6-yl]-(4-trifluoromethyl-phenyl)-amine], the pIC50 in assay [1] is at least 6.00.

In the case of `FC(F)(F)c1ccc(Nc2ncnc3c2cnn3-c2ncccc2Cl)cc1` [[1-(3-Chloro-pyridin-2-yl)-1H-pyrazolo[3,4-d]pyrimidin-4-yl]-(4-trifluoromethyl-phenyl)-amine], in assay [1], the pIC50 was at least 6.00.

`N#Cc1ccc(Nc2ncnc3c2ncn3-c2cccc(Cl)c2)cc1` [4-[9-(3-Chloro-phenyl)-9H-purin-6-ylamino]-benzonitrile]: the negative logarithm of the IC50 (pIC50) in assay [1] is at least 6.00.

`CC(C)(C)c1ccc(Nc2ncnc3c2ncn3-c2cccc(Cl)c2)cc1` [(4-tert-Butyl-phenyl)-[9-(3-chloro-phenyl)-9H-purin-6-yl]-amine]: the pIC50 in assay [1] was at least 6.00.

With `FC(F)(F)c1ccc(Nc2ncnc3c2ncn3-c2cccc(Cl)c2)cc1` [[9-(3-Chloro-phenyl)-9H-purin-6-yl]-(4-trifluoromethyl-phenyl)-amine], the pIC50 in assay [1] is at least 6.00.

Consider `CC(C)(C)c1ccc(Nc2ncnc3c2ncn3-c2ccccc2Cl)cc1` [(4-tert-Butyl-phenyl)-[9-(2-chloro-phenyl)-9H-purin-6-yl]-amine], for which the pIC50 in assay [1] was at least 6.00.

For the compound `Cc1nc2c(Nc3ccc(C(C)(C)C)cc3)ncnc2n1-c1ccccc1Cl` [(4-tert-Butyl-phenyl)-[9-(2-chloro-phenyl)-8-methyl-9H-purin-6-yl]amine], the pIC50 in assay [1] is at least 6.00.

As to `CC(C)COCc1nc(Nc2ccc(C(C)C)cc2)c2cnn(-c3ccccc3Cl)c2n1` [[1-(2-Chloro-phenyl)-6-isobutoxymethyl-1H-pyrazolo[3,4-d]pyrimidin-4-yl]-(4-isopropyl-phenyl)-amine], in assay [1], the pIC50 was at least 6.00.

Take `Clc1ccc(Nc2ncnc3c2ncn3-c2cccc(Cl)c2)cc1` [(4-Chloro-phenyl)-[9-(3-chloro-phenyl)-9H-purin-6-yl]-amine]: the pIC50 in assay [1] was at least 6.00.

For the compound `Cl.Cl.Cl.Cl.Cl.Cl.N.N.N.N.N.N.N.N.N.N.N.N.N.N.[O-2].[O-2].[Ru+3].[Ru+3].[Ru+4]` [ruthenium red], the pKi in assay [2] is at most 3.85.

For the compound `CC(C)(C)c1ccc(Nc2ncnc3c2ncn3Cc2ccccc2Cl)cc1` [(4-tert-Butyl-phenyl)-[9-(2-chloro-benzyl)-9H-purin-6-yl]-amine], in assay [1], the pIC50 was at least 6.00.

For the compound `CC(C)(C#N)c1ccc(Nc2ncnc3c2ncn3-c2cccc(Cl)c2)cc1` [2-{4-[9-(3-Chloro-phenyl)-9H-purin-6-ylamino]-phenyl}-2-methyl-propionitrile], the pIC50 in assay [1] is at least 6.00.

With `CC(C)COCc1nc(Nc2ccc(C(C)(C)C#N)cc2)c2cnn(-c3ccccc3Cl)c2n1` [2-{4-[1-(2-Chloro-phenyl)-6-isobutoxymethyl-1H-pyrazolo[3,4-d]pyrimidin-4-ylamino]-phenyl}-2-methyl-propionitrile], in assay [1], the pIC50 was at least 6.00.

`C[C@@H]1CN(Cc2nc(Nc3ccc(C(F)(F)F)cc3)c3cnn(-c4ccccc4Cl)c3n2)C[C@H](C)O1` [[1-(2-Chloro-phenyl)-6-(2,6-dimethyl-morpholin-4-ylmethyl)-1H-pyrazolo[3,4-d]pyrimidin-4-yl]-(4-trifluoromethyl-phenyl)-amine]: the pIC50 in assay [1] is at least 6.00.

For the compound `CC(C)COCc1nc(Nc2ccc(C(C)(C)C)cc2)c2cnn(-c3ccccc3Cl)c2n1` [(4-tert-Butyl-phenyl)-[1-(2-chloro-phenyl)-6-isobutoxymethyl-1H-pyrazolo[3,4-d]pyrimidin-4-yl]-amine], the pIC50 in assay [1] is at least 6.00.

Consider `CC(C)COCc1nc(Nc2ccc(C(F)(F)F)cc2)c2cnn(-c3ccccc3Cl)c2n1` [[1-(2-Chloro-phenyl)-6-isobutoxymethyl-1H-pyrazolo[3,4-d]pyrimidin-4-yl]-(4-trifluoromethyl-phenyl)-amine], for which, in assay [1], the pIC50 is at least 6.00.

Take `O=S(=O)(c1ccc(Nc2ncnc3c2cnn3-c2ccccc2Cl)cc1)C(F)(F)F` [[1-(2-Chloro-phenyl)-1H-pyrazolo[3,4-d]pyrimidin-4-yl]-(4-trifluoromethanesulfonyl-phenyl)-amine]: in assay [1], the pIC50 was at least 6.00.

Usually pIC50 stands for the negative decadic logarithm of the IC50, by convention in mol/L. By pKi is commonly meant −log10 of the Ki, conventionally taken in molar units.
